From US8202886B2, “Small molecule E2F inhibitor” (H. Lee Moffitt Cancer Center and Research Institute, Inc., priority 2008, dated 2012)

Assays:
8226-dox40 = assay: MTS viability assay, 8226-dox40; format: cell-based; conditions: Homo sapiens
Description: Cells were collected 24 hours post drug exposure and extracts subjected to western blotting using antibodies to the indicated proteins. Cleavage of PARP indicates apoptosis.
To examine its effect on a range of commonly studied cell lines, the inventors utilized standard MTS assays to quantify cell viability following the therapeutic compound treatment. Cytotoxicity was determined using MTS assays, which were conducted using a CellTiter 96® AQueous One Cell Proliferation Assay Kit (Promega) following the published protocol. Cells in 0.1 ml volume were plated in triplicate into 96-well plates, 1×10^4 cells/well. the therapeutic compound was added and after 24 hours of incubation at 37° C., 20 μl of MTS dye was added to each well. Plates were read at 490 nm following 4 hrs MTS reaction time. The concentration of drug which produced a 50% inhibition of growth (IC50) was calculated from linear regression analysis of the linear portion of the growth curves.

A375 = assay: Apo-BrdU TUNEL apoptosis assay, A375; format: cell-based, human; conditions: 40-μM, 24-hrs
Description: (§1) To determine if treatment with the therapeutic compound contributes to apoptosis, Cells were detached from culture plates by trypsin treatment, washed twice with PBS, and fixed in 70% ethanol. Fixed cells were washed twice with PBS and treated with RNase A and propidium iodide (PI). PI staining was examined using a Becton-Dickinson FACScan instrument and Cell Quest software. TUNEL assay for apoptosis utilized a Pharmingen APO-BRDU Kit. MTS (3-(4,5-dimethylthiazol-2-yl)-5-(3-carboxymethoxyphenyl)-2-(4-sulfophenyl)-2H-tetrazolium, inner salt) assays were conducted using a CellTiter 96® AQueous One Cell Proliferation Assay Kit (Promega).
(§2) A375, MDA-MB-231 (231), MCF-7 and human foreskin fibroblasts (HFF) cells were treated with 40-μM of the therapeutic compound for 24-hrs and subjected to a FACS based terminal deoxynucleotidyl transferase (TUNEL) assay (Apo-BrdU Kit from BD Pharmingen).

MDA-MB-231 = assay: Apo-BrdU TUNEL apoptosis assay, MDA-MB-231; format: cell-based, human; conditions: 40-μM, 24-hrs
Description: as §1, §2

MCF-7 = assay: Apo-BrdU TUNEL apoptosis assay, MCF-7; format: cell-based, human; conditions: 40-μM, 24-hrs
Description: as §1, §2

[1] = system: human foreskin fibroblasts (HFF); assay: Apo-BrdU TUNEL apoptosis assay, HFF; format: cell-based; conditions: 40-μM, 24-hrs
Description: as §1, §2

A375 cells [2] = assay: Propidium iodide flow cytometry, sub-G1 DNA content; format: cell-based, human; conditions: 40-μM
Description: as §1

WT MEFS = assay: Apoptosis (ApoBrdU, PARP western) in WT MEFs; format: cell-based, mouse
Description: FIG. 12A: MEFS derived from sibling WT and E2F4^−/− mice were treated for 24-hrs with the indicated doses of HLM006474. Apoptosis was determined using ApoBrdU (BD Pharmingen).
FIG. 12B: MEFS derived from sibling WT and E2F4^−/− mice were treated as in A subjected to western blotting using a PARP antibody or E2F4 antibody. PARP cleavage (as indicated by the arrow) is an independent measure of apoptosis.
To determine if the effect of the therapeutic compound is dependent upon E2F4, the inventors compared the therapeutic compound response of immortalized MEFs derived from E2F4-deficient mice with MEFS derived from wildtype siblings.

A375 melanocytes = assay: Three-dimensional skin model of A375 proliferation and invasion; format: cell-based, human; conditions: for activated caspase-3 positive cells (IHC): day 2, 5 or 8; for proliferation and invasion of melanocytes (S-100 IHC): day 12, 16 and 20
Description: Culture inserts of differentiated full-thickness 3D skin reconstruction model of A375 melanoma cells were purchased from MatTek (Ashland, Mass.). These were prepared by culturing mixed suspensions of normal human epidermal keratinocytes and A375 cells (1:10 ratio) on fibroblast contracted collagen gels and allowing differentiation for approximately one week in serum free media to form a 3D skin-like structure. These cultures were treated with 0, 40 or 80 μM 6474 and harvested after 0, 2, 5, 8, 12, 16 and 20 days.
In this model, the highly metastatic A375 melanocytes were mixed with normal human keratinocytes and seeded on fibroblast-contracted collagen gels. The mixed cells were then induced to differentiate in serum free media to form three-dimensional, highly differentiated, full thickness skin-like tissues. After seven days of differentiation the cells were then treated with 0 (DMSO carrier alone), 40 or 80 μM the therapeutic compound. The three-dimensional models were then cultured for 2, 5, 8, 12, 16 and 20 days. At the appointed time, 3D cultures were fixed in formalin, paraffin embedded, sectioned and either stained with H&E or processed for immunohistochemistry (1HC) using antibodies against S-100 to measure expression of a melanocyte marker, E2F4 to determine if it were down regulated as in 2D culture, activated caspase-3 to measure apoptosis and […] to measure the proliferative index.

H1299 = assay: Western blots of treated H1299 cells; format: cell-based
Description: (§3) In order to further examine the mechanism of action of the therapeutic compound four lung cancer cell lines were treated with various concentrations of drug and western blots performed on cell extracts after 24 hr.

H460 = assay: Western blots of treated H460 cells; format: cell-based
Description: as §3

A549 = assay: Western blots of treated A549 cells; format: cell-based
Description: as §3

H358 = assay: Western blots of treated H358 cells; format: cell-based; conditions: H358, 40 micromolar, 24 hrs
Description: The indicated NSCLC lines were treated with 40 micromolar the therapeutic compound and subjected western blotting 24 hrs later using the indicated antibodies.

E2F complexes = assay: E2F EMSA on extracts of treated breast cancer cell lines; format: cell-based; conditions: 40 μM
Description: Several breast cancer cell lines were treated with 40 μM HLM006474 and extracts subjected to E2F EMSA assay.
Quantitative EMSA assays were performed in triplicate.

A375 cells [3] = assay: Western blots of treated A375 cells
Description: Actin served as a loading control in these experiments and in those that follow.
To determine the activity of the therapeutic compound over time, A375 cells were treated with 40-μM of compound and examined at 0-, 3-, 6-, 9-, 12-, 18- and 24-hrs by EMSA and western (FIG. 11A).
To further examine the timing of the therapeutic compound-induced apoptosis, A375 cells were treated with 40-μM the therapeutic compound, harvested and fixed at various time periods.
To compare the mechanism of the therapeutic compound-induced apoptosis with that of several standard DNA damaging drugs, A375 cells were treated for 24-hrs with 40-μM the therapeutic compound, 10 μM cisplatin, 10 nM doxorubicin, 10 μM VP16 (etoposide) or with two-drug combinations.
Western blots utilized 50 μg of whole cell extract per lane as previously described. […] Detection of proteins was accomplished using horseradish-peroxidase-conjugated secondary antibodies and enhanced chemiluminescence (ECL) purchased from Amersham.

[4] = 40 μM, listed as the therapeutic compound

CCOc1ccc(C(Nc2ccccn2)c2ccc3ccc(C)nc3c2O)cc1C (stereo not drawn) [HLM006474]
IC50 (8226-dox40): 31 ± 4 µM | apoptosis (TUNEL) (A375): dramatic induction of apoptosis | apoptosis (TUNEL) (MDA-MB-231): dramatic induction of apoptosis | apoptosis (TUNEL) (MCF-7): did not induce an obvious increase in apoptosis | apoptosis (TUNEL) [1]: did not induce an obvious increase in apoptosis | time at which increase in sub-G1 DNA content begins (A375 cells [2]): approximately 9 hrs | level of apoptosis in WT cells as compared to E2F4-deficient cells (WT MEFS; 24-hrs, ApoBrdU): two-fold increase | concentration at which PARP cleavage is evident (WT MEFS; E2F4 proficient MEFs): 20 µM | effects on the other cells (fibroblasts and keratinocytes) of the 3D tissue (A375 melanocytes): no obvious deleterious effects | E2F4 levels (IHC) (A375 melanocytes; 40 μM): clearly reduced | Ki-67 staining (A375 melanocytes; 40 μM, day 2, 5 and 8): decrease in the number of proliferative cells | activated caspase-3 positive cells (IHC) (A375 melanocytes; 40 μM): no detectable increase in apoptotic cells | activated caspase-3 positive cells (IHC) (A375 melanocytes; [4]): no significant difference | proliferation and invasion of melanocytes (S-100 IHC) (A375 melanocytes; 40 μM): very rare | proliferation and invasion of melanocytes (S-100 IHC) (A375 melanocytes; [4]): significantly inhibited the proliferation and subsequent invasion | melanocyte proliferation (H&E) (A375 melanocytes; 80 μM): essentially no melanocyte proliferation | Bcl-2 (western) (H1299; H1299, 40-μM): significant downregulation | Mcl-1 (western) (H1299; H1299, 40-μM): no change | sensitivity (downregulation of E2F1 and E2F4, PARP cleavage) (H1299; H1299, various concentrations, 24 hr): very sensitive | Bcl-2 or Mcl-2 (western) (H460; H460, 40-μM): did not show changes | sensitivity (downregulation of E2F1 and E2F4, PARP cleavage) (H460; H460, various concentrations, 24 hr): very sensitive | Mcl-1 (western) (A549; A549, 40-μM): downregulation of Mcl-1 | sensitivity (downregulation of E2F1 and E2F4, PARP cleavage) (A549; A549, various concentrations, 24 hr): limited sensitivity | cyclin A or E2F1 (western) (H358): no decrease | DNA-binding of all E2F complexes (EMSA) (E2F complexes): inhibited | expression of E2F4 or E2F1 (western) (A375 cells [3]; 9-hrs of treatment): does not significantly affect | Mcl-1 (western) (A375 cells [3]; 24-hrs, 40-μM): may slightly repress Mcl-1 | PARP cleavage (western) (A375 cells [3]; 24-hrs, 40-μM): potent inducer of PARP cleavage | time at which PARP cleavage indicates significant apoptosis (A375 cells [3]; 40-μM): ≤ 12 h | time at which decrease in total E2F4 protein became apparent (A375 cells [3]; 40-μM): up to 24 hrs
